Consider five molecules from patent publication US20170354600A1, “COMPOSITION AND METHOD FOR STABILIZING GSH” (priority 2016, published 2017).

Where two headings read alike, the source gives them in different places.

Data set [1] is described as follows: GSH retention in solid composition exposed to hydrogen peroxide oxidation (Ellman colorimetric, 405 nm). The note with it: 0.1 mmol GSH, 1 ml hydrogen peroxide 1.0% w/v. The procedure:
0.1 mmol of reduced glutathione (96%) was premixed with 5 g of liquid sorbitol (96%, Roquette Corp) using magnetic stirring for 15 minutes at room temperature. Then, as described in Table 2, an amount of each food grade antioxidant were separately added for each test, followed by an additional 10 minutes of stirring. The mixture was then homogeneously dispersed in 100 g of powder sorbitol using mechanical high shear blending for 3 minutes. 1 ml of hydrogen peroxide solution 1.0% w/v was added to each test and a continue mixing for additional 1 minute. A control test with no antioxidant was also performed.
After 6 hours of exposure to oxidation, 5 g of the treated solid mixture was added to 30 ml of 0.1M disodium phosphate/0.001 mM EDTA pH 8.0 buffer solution. This solution was then extracted 3 times with chloroform using a separation funnel. The remaining aqueous phase was added to 100 ml volumetric flask and the volume was completed using 0.1M disodium phosphate/0.001 mM EDTA pH 8.5 buffer solution. The GSH present in this solution was quantify by colorimetric method at 405 nm using Elman's reagent, 5,5′-Dithio-bis-(2-nitrobenzoic acid), using L-glutathione 99%, provided by Sigma Aldrich, as standard. The retaining percentage for each solid composition was calculated and expressed as percentage values in Table 3. […]

Data set [2] is described as follows: GSH retention in liquid composition exposed to hydrogen peroxide oxidation (Ellman colorimetric, 405 nm). The note with it: 0.1 mmol GSH, pH 8.0 buffer, 1 ml hydrogen peroxide 0.5% w/v. The procedure:
0.1 mmol of reduced glutathione (Kohjin Co. Ltd) was premixed with 5 g of liquid sorbitol (96%, Roquette Corp) using magnetic stirring for 10 minutes. Then, as described in Table 5, incremental concentrations of food grade antioxidants where added followed by additional 10 minutes of stirring. The mixture was then added to 100 g of 0.1M disodium phosphate/0.001 mM EDTA pH 8.0 buffer solution, then 1 ml of hydrogen peroxide solution 0.5% w/v was added to each test. A control test with no antioxidant was also performed.
After 1 hour of exposure to oxidation, 5 grams of the treated solution was added to 30 ml of 0.1M disodium phosphate/0.001 mM EDTA pH 8.5 buffer solution. This solution was then extracted 3 times with chloroform using a separation funnel. The remaining aqueous phase was added to a 100 ml volumetric flask and the volume was completed using 0.1M disodium phosphate/0.001 mM EDTA pH 8.0 buffer solution. The GSH present in this solution was quantify by colorimetric method at 405 nm using Elman's reagent, 5,5′-Dithio-bis-(2-nitrobenzoic acid), using L-glutathione 99%, provided by Sigma Aldrich, as standard. The retaining percentage for each solid composition was calculated and expressed as percentage values in Table 6. […]

For data set [3] the following is noted: GSH, cited from earlier work.

As for `O=C1O[C@H]([C@@H](O)CO)C(O)=C1O` [Ascorbic acid, L-Ascorbic acid], the “Retention percentage after 6 hours of oxidation in solid compositions” value (from here on “Retention percentage after 6 hours”) in data set [1] (0.001 mmol antioxidant) is recorded as 0.00%; in data set [1] (0.01 mmol antioxidant), 14.29%; in data set [1] (10 mmol antioxidant) it was 28.96%; in data set [1] (18.18 mmol antioxidant) it was 18.18%. For the same molecule, the “Retention percentage after 1 hour of oxidation in liquid composition” value (“Retention percentage after 1 hour” for short) in data set [2] (0.001 mmol antioxidant) was found to be 0.00%; in data set [2] (0.01 mmol antioxidant), 0.00%; in data set [2] (1 mmol antioxidant), 17.92%; in data set [2] (10 mmol antioxidant) it was 32.08%.
With `CCCCCCCCCCCCCCCC(=O)OC[C@H](O)[C@H]1OC(=O)C(O)=C1O` [Ascorbyl palmitate], the “Retention percentage after 6 hours” value in data set [1] (0.001 mmol antioxidant) is reported as 18.18%; in data set [1] (0.01 mmol antioxidant), 25.97%; in data set [1] (10 mmol antioxidant), 46.10%; in data set [1] (18.18 mmol antioxidant), 36.88%. For the same molecule, the “Retention percentage after 1 hour” value in data set [2] (0.001 mmol antioxidant) came to 0.00%; in data set [2] (0.01 mmol antioxidant), 13.38%; in data set [2] (1 mmol antioxidant), 18.83%; in data set [2] (10 mmol antioxidant), 36.36%.
Regarding `N[C@@H](CCC(=O)N[C@@H](CS)C(=O)NCC(=O)O)C(=O)O` [GSH, Reduced glutathione], the Half life is 16 min in data set [3] (pH 6.5, 20° C., 0.1M K2HPO4/KH2PO4 Buffer); 9 min in data set [3] (pH 7.5, 20° C., 0.1M K2HPO4/KH2PO4 Buffer); 8 min in data set [3] (pH 8.5, 0° C., 0.1M K2HPO4/KH2PO4 Buffer); 1.2 min in data set [3] (pH 8.5, 20° C., 0.1M K2HPO4/KH2PO4 Buffer + 0.1 nM Cu + 2); 70 min in data set [3] (pH 8.5, 20° C., 0.1M K2HPO4/KH2PO4 Buffer + 1.0 nM EDTA); 1.3 min in data set [3] (pH 8.5, 20° C., 0.1M K2HPO4/KH2PO4 Buffer). The Half life in data set [3] (pH 8.5, 40° C., 0.1M K2HPO4/KH2PO4 Buffer) is 0.2 min.
As to `CC(=O)OC/C=C(C)/C=C/C=C(C)/C=C/C1=C(C)CCCC1(C)C` [Vitamin A, Vitamin A acetate], the “Retention percentage after 6 hours” value in data set [1] (0.001 mmol antioxidant) was 28.57%; in data set [1] (0.01 mmol antioxidant), 33.77%; in data set [1] (10 mmol antioxidant), 51.04%; in data set [1] (18.18 mmol antioxidant), 46.36%. For the same molecule, the “Retention percentage after 1 hour” value in data set [2] (0.001 mmol antioxidant) is 14.29%; in data set [2] (0.01 mmol antioxidant), 21.95%; in data set [2] (1 mmol antioxidant), 33.25%; in data set [2] (10 mmol antioxidant), 49.79%.
With `CC(=O)Oc1c(C)c(C)c2c(c1C)CC[C@@](C)(CCC[C@H](C)CCC[C@H](C)CCCC(C)C)O2` [Vitamin E, DL alpha tocopheryl acetate], the “Retention percentage after 6 hours” value in data set [1] (0.001 mmol antioxidant) was determined as 24.16%; in data set [1] (0.01 mmol antioxidant) it was 31.04%; in data set [1] (10 mmol antioxidant), 45.19%; in data set [1] (18.18 mmol antioxidant) it was 39.61%. Further, the “Retention percentage after 1 hour” value in data set [2] (0.001 mmol antioxidant) worked out at 10.39%; in data set [2] (0.01 mmol antioxidant), 16.88%; in data set [2] (1 mmol antioxidant), 30.39%; in data set [2] (10 mmol antioxidant), 41.69%.
